Laboratory results: ChEMBL document CHEMBL4813973, “Discovery of novel N-benzylbenzamide derivatives as tubulin polymerization inhibitors with potent antitumor activities” (Eur J Med Chem, 2021)
Converted amounts (≈) assume the structure as drawn.

What was measured:
A-431 = experiment: Antiproliferative activity against human A-431 cells assessed as reduction in cell viability incubated for 72 hrs by MTT assay; format: functional, cell-based; conditions: A-431, 72 h
[1] = Aqueous solubility of the compound in aqueous HCl at pH 2 by HPLC-UV analysis; format: physicochemical
Bel-7402 [2] = experiment: Antiproliferative activity against ADR-resistant human Bel-7402 cells assessed as reduction in cell viability incubated for 72 hrs by MTT assay; format: functional, cell-based; conditions: Homo sapiens, Bel-7402, 72 h; read-out: IC50
[3] = Resistant index, ratio of IC50 for taxol-resistant human HCT-8 cells to IC50 for human HCT-8 cells; format: functional
H22 [4] = experiment: Antiproliferative activity against mouse H22 cells assessed as reduction in cell viability incubated for 72 hrs by MTT assay; format: functional, cell-based; conditions: H22, 72 h
Sus scrofa [5] = organism: Sus scrofa; experiment: Inhibition of [3H]colchicine binding to biotinylated pig brain tubulin at 1 uM incubated for 2 hrs in presence of GTP by competitive scintillation proximity assay; format: tissue-based
[6] = Resistant index, ratio of IC50 for ADR-resistant human Bel-7402 cells to IC50 for human Bel-7402 cells; format: functional
HepG2 = experiment: cells; conditions: Homo sapiens, HepG2, 72 h
Sus scrofa [7] = organism: Sus scrofa; experiment: Inhibition of [3H]colchicine binding to biotinylated pig brain tubulin at 5 uM incubated for 2 hrs in presence of GTP by competitive scintillation proximity assay; format: tissue-based
[8] = Inhibition of pig brain tubulin polymerisation incubated for 30 mins and measured every 2 mins for 60 mins by spectrophotometric method; format: tissue-based, Sus scrofa
[9] = n-Octanol/water partition coefficient, logD of the compound incubated for 24 hrs at pH 7.4 by HPLC analysis; format: physicochemical
H22 [10] = experiment: Antitumor activity against […] xenografted in ICR mouse assessed as reduction of tumor weight at 20 mg/kg/day, iv for 21 days; format: functional; conditions: 504 h, time 21 day
[11] = Resistant index, ratio of IC50 for VCR resistant human K562 cells to IC50 for human K562 cells; format: functional
[12] = Aqueous solubility of the compound in phosphate buffer at pH 7.4 by HPLC-UV analysis; format: physicochemical
HCT-8 [13] = experiment: Antiproliferative activity against taxol-resistant human HCT-8 cells assessed as reduction in cell viability incubated for 72 hrs by MTT assay; format: functional, cell-based; conditions: Homo sapiens, HCT-8, 72 h; read-out: IC50
[14] = Metabolic stability in rat plasma assessed as parent compound remaining at 100 nM measured after 60 mins by HPLC analysis; format: ADME, cell-free; conditions: 1 h, 0.1 µM
HCT-8 [15] = experiment: Antiproliferative activity against human HCT-8 cells assessed as reduction in cell viability incubated for 72 hrs by MTT assay; format: functional, cell-based; conditions: Homo sapiens, HCT-8, 72 h; read-out: IC50
MDA-MB-231 = experiment: Antiproliferative activity against human MDA-MB-231 cells assessed as reduction in cell viability incubated for 72 hrs by MTT assay; format: functional, cell-based; conditions: MDA-MB-231, 72 h
K562 = experiment: cells; conditions: Homo sapiens, K562, 72 h
Description: Antiproliferative activity against human K562 cells assessed as reduction in cell viability incubated for 72 hrs by MTT assay

L02 = experiment: Cytotoxicity against human L02 cells assessed as reduction in cell viability incubated for 72 hrs by MTT assay; format: cell-based; conditions: L02, 72 h
K562/VCR = experiment: Antiproliferative activity against VCR resistant human K562/VCR cells assessed as reduction in cell viability incubated for 72 hrs by MTT assay; format: functional, cell-based; conditions: Homo sapiens, K562/VCR, 72 h; read-out: IC50
[16] = Metabolic stability in rat plasma assessed as parent compound remaining at 100 nM measured after 3 hrs by HPLC analysis; format: ADME, cell-free; conditions: read-out: Stabilty
Bel-7402 [17] = experiment: Antiproliferative activity against human Bel-7402 cells assessed as reduction in cell viability incubated for 72 hrs by MTT assay; format: functional, cell-based; conditions: Homo sapiens, Bel-7402, 72 h; read-out: IC50

SMILES: O=C(NCc1ccc(OC(F)(F)F)cc1)c1cc([N+](=O)[O-])ccc1N1CCOCC1
- IC50 (A-431): > 1000 nM

SMILES: COc1ccc(CNC(=O)c2ccc([N+](=O)[O-])cc2N2CCOCC2)cc1O
- IC50 (A-431): 224 nM

SMILES: COc1ccc(CNC(=O)c2cc(C(F)(F)F)ccc2N2CCCCC2)cc1O
- IC50 (A-431): 97 nM

SMILES: COc1ccc(CNC(=O)c2cc([N+](=O)[O-])ccc2N2CCS(=O)(=O)CC2)cc1O
- IC50 (A-431): > 1000 nM

SMILES: O=C(NCc1ccncc1)c1cc([N+](=O)[O-])ccc1N1CCOCC1
- IC50 (A-431): > 1000 nM

SMILES: CN(C)c1ccc(CNC(=O)c2cc([N+](=O)[O-])ccc2N2CCOCC2)cc1
- IC50 (A-431): 145 nM

SMILES: CCN(CC)c1ccc([N+](=O)[O-])cc1C(=O)NCc1ccc(OC)c(O)c1
- IC50 (A-431): 51 nM

SMILES: COc1ccc(/C=C\c2cc(OC)c(OC)c(OC)c2)cc1O [COMBRETASTATIN A4]
- solubility [1]: < 1 µg/mL
- IC50 (Bel-7402 [2]): 58 nM
- Ratio IC50 [3]: 7.9
- IC50 (H22 [4]): 15 nM
- inhibition (Sus scrofa [5]): 80.2%
- Ratio IC50 [6]: 5.3
- IC50 (HepG2): 10 nM
- inhibition (Sus scrofa [7]): 90.3%
- IC50 [8]: 2640 nM
- logD at 24 h [9]: 2.68
- inhibition in vivo at 20 mg/kg/day (H22 [10]): 54.9%
- Ratio IC50 [11]: 8.1
- solubility [12]: 1 µg/mL (≈ 3.16 µM)
- IC50 (HCT-8 [13]): 87 nM

SMILES: COc1ccc(CNc2ccc(N3CCOCC3)c(C(=O)NCc3ccc(OC)c(O)c3)c2)cc1
- IC50 (A-431): 306 nM

SMILES: O=C(NCc1ccc(C(F)(F)F)cc1)c1cc([N+](=O)[O-])ccc1N1CCOCC1
- IC50 (A-431): > 1000 nM

SMILES: CCOC(=O)[C@H](CCc1ccccc1)N[C@@H](C)C(=O)N1CCC[C@H]1C(=O)O [ENALAPRIL]
- Stabilty [14]: Unstable

SMILES: COc1ccc(CNC(=O)c2cc([N+](=O)[O-])ccc2N2CCCC2)cc1O
- IC50 (A-431): 372 nM

SMILES: COc1ccc(C(C)NC(=O)c2cc([N+](=O)[O-])ccc2N2CCOCC2)cc1 (configuration not stated)
- IC50 (A-431): 241 nM

SMILES: COc1ccc(CNC(=O)c2cc(F)ccc2N2CCCCC2)cc1O
- solubility [1]: 1110 µg/mL (≈ 3090 µM)
- IC50 (HCT-8 [15]): 29 nM
- IC50 (MDA-MB-231): 86 nM
- IC50 (K562): 11 nM
- IC50 (A-431): 25 nM
- IC50 (L02): 88 nM
- IC50 (H22 [4]): 32 nM
- IC50 (HepG2): 26 nM
- logD at 24 h [9]: 2.97
- solubility [12]: < 1 µg/mL

SMILES: O=C(NCc1ccc(Cl)cc1)c1cc([N+](=O)[O-])ccc1N1CCOCC1
- IC50 (A-431): > 1000 nM

SMILES: COc1ccc(CNC(=O)c2cc([N+](=O)[O-])ccc2N2CCOCC2)cn1
- IC50 (A-431): > 1000 nM

SMILES: COc1ccc(-c2ccc(N3CCOCC3)c(C(=O)NCc3ccc(OC)c(O)c3)c2)cc1
- IC50 (A-431): 154 nM

SMILES: COc1ccc(CNC(=O)c2cc([N+](=O)[O-])ccc2N2CCCCC2)cc1O
- IC50 (HCT-8 [15]): 11 nM
- IC50 (MDA-MB-231): 29 nM
- IC50 (K562): 19 nM
- IC50 (A-431): 12 nM
- IC50 (L02): 120 nM
- IC50 (H22 [4]): 25 nM
- IC50 (HepG2): 12 nM

SMILES: COc1ccc(CNC(=O)c2cc(O)ccc2N2CCOCC2)cc1O
- IC50 (A-431): 121 nM

SMILES: CSc1ccc(COC(=O)c2cc([N+](=O)[O-])ccc2N2CCOCC2)cc1
- IC50 (HCT-8 [15]): 27 nM
- IC50 (Bel-7402 [2]): 268 nM
- IC50 (MDA-MB-231): 31 nM
- IC50 (K562): 10 nM
- IC50 (A-431): 10 nM
- Ratio IC50 [3]: 8.2
- IC50 (L02): 44 nM
- IC50 (K562/VCR): 297 nM
- IC50 (H22 [4]): 25 nM
- Stabilty [14]: Stable
- inhibition (Sus scrofa [5]): 58%
- Ratio IC50 [6]: 4.8
- IC50 (HepG2): 33 nM
- inhibition (Sus scrofa [7]): 85.7%
- IC50 [8]: 2990 nM
- inhibition in vivo at 20 mg/kg/day (H22 [10]): 66.7%
- Ratio IC50 [11]: 29.7
- remaining at 3 h, 0.1 µM [16]: 72.6%
- IC50 (HCT-8 [13]): 221 nM
- IC50 (Bel-7402 [17]): 56 nM

SMILES: COc1ccc(CNC(=O)c2cc(C(F)(F)F)ccc2N2CCOCC2)cc1O
- IC50 (HCT-8 [15]): 56 nM
- IC50 (MDA-MB-231): 57 nM
- IC50 (K562): 40 nM
- IC50 (A-431): 37 nM
- IC50 (L02): 103 nM
- IC50 (H22 [4]): 55 nM
- IC50 (HepG2): 62 nM

SMILES: COc1ccc(CNC(=O)c2cc(Br)ccc2N2CCCCC2)cc1O
- IC50 (A-431): 92 nM

SMILES: COc1ccc(/C=C\c2cc(OC)c(OC)c(OC)c2)cc1OP(=O)(O)O [FOSBRETABULIN]
- inhibition in vivo at 20 mg/kg/day (H22 [10]): 62.7%

SMILES: COc1ccc(CNC(=O)c2cc([N+](=O)[O-])ccc2N2CCOCC2)cc1OC
- IC50 (A-431): > 1000 nM

SMILES: O=C(OCc1cccc2[nH]ccc12)c1cc([N+](=O)[O-])ccc1N1CCOCC1
- IC50 (A-431): > 1000 nM

SMILES: COc1ccc(CNC(=O)c2cc([N+](=O)[O-])ccc2N(C)C)cc1O
- IC50 (A-431): > 1000 nM

SMILES: COc1ccc(CNC(=O)c2cc(Cl)ccc2N2CCOCC2)cc1O
- IC50 (HCT-8 [15]): 25 nM
- IC50 (MDA-MB-231): 30 nM
- IC50 (K562): 32 nM
- IC50 (A-431): 25 nM
- IC50 (L02): 95 nM
- IC50 (H22 [4]): 31 nM
- IC50 (HepG2): 29 nM

SMILES: COc1ccc(CNC(=O)c2cc(N(C)C)ccc2N2CCOCC2)cc1O
- IC50 (A-431): 105 nM
